Experimental data reported in patent publication US20180010132A1, “INHIBITION OF PRMT5 TO TREAT MTAP-DEFICIENCY-RELATED DISEASES” (NOVARTIS AG, priority 2014, published 2018).

Experiments:
PRMT5/MEP50 complex = PRMT5/MEP50 complex (Homo sapiens, UniProt O14744); test: LC/MS based biochemical histone methyltransferase assay
Description: Top: Schematic representation of multi-allele dual-selection assay with P2A or STOP insertion cassettes and crystal violet staining of cells. […] Profiling of the inhibitory activity (IC50) of adenosine and MTA across a panel of histone methyltransferases (HMTs) in an LC/MS based biochemical assay. MTA and adenosine display single digit μM activity against the PRMT5/MEP50 complex (red) but have no activity (IC50>100 μM) across all other HMTs tested. […] MIAPaCa2 cells stably expressing inducible shPRMT5-2 were transduced with pRetro empty vector control or with MTAP cDNA and proliferation assessed by confluence measurements using Incucyte. […] FIGS. 3 K and L show in vitro proliferation assay of PK1 MTAP isogenic cell lines generated from a non-targeting control sgRNA FIG. 3 K, PK1 CTRL; or with a sgRNA targeting MTAP 1, PK1 MTAP KO and stably expressing Dox-inducible PRMT5 (shPRMT5-2) with and without treatment with doxycycline (+/−Dox) over time (hours) as assessed by incucyte (n=24 per treatment condition). […] FIGS. 3 M and N show focus formation of PK1 (FIG. 3M), wild type (WT) and (FIG. 3N), MTAP knockout (MTAP KO) cells treated with DMSO or MTA at concentrations as indicated.

PRMT5 = PRMT5 (Homo sapiens, UniProt O14744); settings: methylating the substrate E2-F-1; cited from earlier work
Sequence of PRMT5 (O14744 whole entry): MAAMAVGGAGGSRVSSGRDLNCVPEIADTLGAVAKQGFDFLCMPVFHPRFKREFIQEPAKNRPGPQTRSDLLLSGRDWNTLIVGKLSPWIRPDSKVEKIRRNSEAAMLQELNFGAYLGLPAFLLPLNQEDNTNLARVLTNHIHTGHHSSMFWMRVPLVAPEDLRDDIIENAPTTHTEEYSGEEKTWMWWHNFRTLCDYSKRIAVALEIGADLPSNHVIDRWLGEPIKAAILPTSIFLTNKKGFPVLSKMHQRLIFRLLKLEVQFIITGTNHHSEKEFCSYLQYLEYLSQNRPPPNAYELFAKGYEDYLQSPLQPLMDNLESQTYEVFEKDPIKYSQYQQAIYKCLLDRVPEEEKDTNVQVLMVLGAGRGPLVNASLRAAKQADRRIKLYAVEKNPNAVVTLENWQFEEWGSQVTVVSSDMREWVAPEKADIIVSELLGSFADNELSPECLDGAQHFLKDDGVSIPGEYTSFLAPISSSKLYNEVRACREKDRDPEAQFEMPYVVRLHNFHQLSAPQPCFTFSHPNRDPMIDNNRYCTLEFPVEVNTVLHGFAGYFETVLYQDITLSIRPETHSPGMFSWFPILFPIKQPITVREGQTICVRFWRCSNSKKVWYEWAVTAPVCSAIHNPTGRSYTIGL
Sequence of PRMT5 (Q9BQA1 whole entry partner): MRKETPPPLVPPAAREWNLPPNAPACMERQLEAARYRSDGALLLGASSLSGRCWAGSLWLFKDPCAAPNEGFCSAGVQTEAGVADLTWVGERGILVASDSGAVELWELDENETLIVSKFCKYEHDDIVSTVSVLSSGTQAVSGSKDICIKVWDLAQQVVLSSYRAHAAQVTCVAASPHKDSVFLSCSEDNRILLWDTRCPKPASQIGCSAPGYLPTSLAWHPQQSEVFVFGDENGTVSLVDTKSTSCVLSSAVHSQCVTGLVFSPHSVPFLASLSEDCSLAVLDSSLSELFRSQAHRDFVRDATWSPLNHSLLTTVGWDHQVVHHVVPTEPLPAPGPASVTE

Sequence of PRMT5/MEP50 complex (O14744 whole entry): as the sequence (O14744 whole entry) above
Sequence of PRMT5/MEP50 complex (Q9BQA1 whole entry partner): as the sequence (Q9BQA1 whole entry partner) above

Compound | inhibitory activity (IC50) (PRMT5/MEP50 complex) | PRMT5 activity (PRMT5)
CSC[C@H]1O[C@@H](n2cnc3c(N)ncnc32)[C@H](O)[C@@H]1O [MTA, methyl-thioadenosine] | single digit | 
Nc1ncnc2c1ncn2[C@@H]1O[C@H](CO)[C@@H](O)[C@H]1O [adenosine] | single digit | 
Nc1ncnc2c1ncn2[C@@H]1O[C@H](C[C@@H](N)CC[C@H](N)C(=O)O)C(O)C1O (stereo in doubt) [Sinefungin, 5′-Deoxy-5′-(1,4-diamino-4-carboxybutyl)adenosine] |  | inhibits
